These are literature values, as cited in patent US9114169B2, “Sweetening and healthy compositions and methods associated therewith” (priority 2013, dated 2015).

For data set [1] the following is noted: compared with resveratrol.
The conditions of data set [2]: fold greater than resveratrol.
The conditions of data set [3]: compared with resveratrol. The source holds these as a separate data set.
For data set [4] the following is noted: fold longer than resveratrol.

For the compound `COc1cc(/C=C/c2ccc(O)cc2)cc(OC)c1` [Pterostilbene, pterostilbene], the “metabolic stability relative to resveratrol” value in data set [1] was “greater”. Moreover, the “cellular uptake relative to resveratrol” value in data set [2] is recorded as 2-4 times. Moreover, the “absorption relative to resveratrol” value in data set [3] was “greater absorption”. In addition, in data set [4], the “half-life in the human body relative to resveratrol” value is “seven”.
